These results are taken from patent publication US11420970B1 (NOVARTIS AG, priority 2019, dated 2022).

One assay deals with NSD2 [1-1365] (Homo sapiens (Human), UniProt O96028). Nature of the assay: LC-MS/MS-based NSD2 enzymatic assay (SAH production). The assay is classed as biochemical. In a few lines:
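SAH formed was measured by LC-MS/MS using d4-SAH as internal standard and an SAH calibration curve. Compounds were preincubated 20 min with NSD2 [1-1365] and SAM; mouse-liver nucleosome then started a 90 min room-temperature reaction (8 nM enzyme, 1 μM SAM, 400 nM nucleosome final, pH 8.0), stopped with TFA.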

Assay [1] has as its system cellular H3K36me2 level in multiple myeloma cell line KMS11 (t(4;14)+). The experiment in a line: H3K36me2 cellular FRET assay in KMS11-Par line. The assay is classed as cell-based. Particulars: Homo sapiens, KMS-11, KMS11-Par line, FRET, read-out: H3K36me2 FRET in KMS11-Par. As for the experimental part:
H3K36Me2 Cellular FRET Assay in KMS11-Par Line
Fluorescence Resonance Energy Transfer (FRET) assay was used to test the ability of candidate compound to reduce cellular H3K36me2 level in multiple myeloma cell line KMS11 (t(4;14)+) (Horizon Discovery Ltd.).
Cells were treated with tested compounds at the desired concentration for 48 hours. […] Histone extract was incubated with Eu labeled anti-H3K36me2 antibody (abcam #ab ab9049) and d2 labeled anti-H3 antibody (abcam #ab1791) for 1 hour at room temperature. A Eu labeled anti-H3 antibody (CISBIO #64CUS000) was used for loading control. The abundancy of H3K36me2 or total H3 was measured by fluorescence signal on Perkin Elmer Envison machine.

For assay [2], the system named is cellular H3K36me2 level in thyroid carcinoma cell line CGTH-W-1 (NSD2 E1099K). The experiment in a line: H3K36me2 cellular ELISA assay in CGTH-W-1 line. The assay is classed as cell-based. Particulars: Homo sapiens, CGTH-W-1, 72 h, read-out: H3K36me2 ELISA in CGTH-W-1. In a few lines:
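After 72 h compound treatment of NSD2 E1099K-mutant CGTH-W-1 cells, H3K36me2 and total H3 were quantified by ELISA with chemiluminescent read-out. A parallel-seeded plate gave cell viability by CellTiter-Glo.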
For orientation: ELISA stands for enzyme-linked immunosorbent assay.

Assay [3] relates to cellular H3K36me2 level in multiple myeloma cell line KMS11 (t(4;14)+). Nature of the assay: H3K36me2 cellular ELISA assay in KMS11-Par line. The class given is cell-based. The settings on record: Homo sapiens, KMS-11, ELISA, read-out: H3K36me2 ELISA in KMS11-Par. In a few lines: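 After 72 h compound exposure, HCl-extracted histones from KMS11 (t(4;14)+) cells were probed by ELISA for H3K36me2 against total H3 with a chemiluminescence read-out. Cells were plated at 1,250/well in Opti-MEM plus B-27 and N2 the day before. A parallel CellTiter-Glo plate tracked viability.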

Where [4] appears, read: NSD2 biochemical activity, class symbols, read-out: NSD2 IC50.
[5] abbreviates: KMS11-Par line (t(4;14)+), 72 hours treatment.

Read-outs that look alike come from different tables or passages of the source.

Chain of NSD2 [1-1365] (O96028 whole entry): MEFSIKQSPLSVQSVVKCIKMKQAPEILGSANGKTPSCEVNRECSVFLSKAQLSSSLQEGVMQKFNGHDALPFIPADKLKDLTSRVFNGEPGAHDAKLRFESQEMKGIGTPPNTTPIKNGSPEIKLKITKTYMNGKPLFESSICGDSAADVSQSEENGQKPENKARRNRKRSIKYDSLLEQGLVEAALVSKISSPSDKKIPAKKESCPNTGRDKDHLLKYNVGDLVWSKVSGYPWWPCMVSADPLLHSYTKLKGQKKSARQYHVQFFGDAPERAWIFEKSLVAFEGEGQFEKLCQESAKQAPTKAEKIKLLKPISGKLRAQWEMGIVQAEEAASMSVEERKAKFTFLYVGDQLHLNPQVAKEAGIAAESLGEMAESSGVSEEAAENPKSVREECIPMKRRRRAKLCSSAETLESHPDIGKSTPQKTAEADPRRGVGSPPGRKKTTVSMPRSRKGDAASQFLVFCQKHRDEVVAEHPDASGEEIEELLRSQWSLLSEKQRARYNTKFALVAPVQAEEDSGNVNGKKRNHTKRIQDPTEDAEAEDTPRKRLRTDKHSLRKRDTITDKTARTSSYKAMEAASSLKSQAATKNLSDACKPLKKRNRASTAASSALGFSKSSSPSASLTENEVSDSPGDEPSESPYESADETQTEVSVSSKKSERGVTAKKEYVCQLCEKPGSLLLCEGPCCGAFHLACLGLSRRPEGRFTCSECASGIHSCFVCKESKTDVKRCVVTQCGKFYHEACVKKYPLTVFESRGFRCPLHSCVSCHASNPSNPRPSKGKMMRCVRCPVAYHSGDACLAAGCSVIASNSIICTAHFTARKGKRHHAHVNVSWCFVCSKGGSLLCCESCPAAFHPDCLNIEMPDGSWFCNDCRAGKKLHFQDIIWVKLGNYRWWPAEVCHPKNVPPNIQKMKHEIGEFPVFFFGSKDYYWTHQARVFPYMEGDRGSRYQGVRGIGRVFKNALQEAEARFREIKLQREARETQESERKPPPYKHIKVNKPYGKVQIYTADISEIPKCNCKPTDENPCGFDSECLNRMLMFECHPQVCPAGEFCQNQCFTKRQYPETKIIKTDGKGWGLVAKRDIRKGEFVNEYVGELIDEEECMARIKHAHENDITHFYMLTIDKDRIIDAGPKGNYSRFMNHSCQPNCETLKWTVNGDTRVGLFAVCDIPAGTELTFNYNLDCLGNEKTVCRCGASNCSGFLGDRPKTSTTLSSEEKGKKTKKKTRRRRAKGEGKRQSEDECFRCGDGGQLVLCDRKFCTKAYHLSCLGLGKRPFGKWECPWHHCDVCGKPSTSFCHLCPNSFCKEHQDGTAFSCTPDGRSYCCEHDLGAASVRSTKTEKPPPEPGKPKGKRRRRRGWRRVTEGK

Take `COc1ccc(-c2cc(Cn3cnc4c(N)ncnc43)c(N3CCC[C@](N)(C(=O)OC(C)(C)C)C3)cn2)cc1F` [Example 83, tert-butyl (R)-3-amino-1-(4-((6-amino-9H-purin-9-yl)methyl)-6-(3-fluoro-4-methoxyphenyl)pyridin-3-yl)piperidine-3-carboxylate]: the IC50 at NSD2 [1-1365] (setting [4]) is 0.01 to 1 µM; in assay [1] (cellular H3K36me2 level), 0.956 µM.
For `COc1ccc(-c2cc(Cn3cnc4c(N)ncnc43)c(N3CCC(OC)C(N)C3)cn2)cc1F` (stereo not drawn) [Example 15, 9-((5-(3-amino-4-methoxypiperidin-1-yl)-2-(3-fluoro-4-methoxyphenyl)pyridin-4-yl)methyl)-9H-purin-6-amine], in that order: 0.01 to 1 µM and 18.7 µM.
Consider `COc1ccc(-c2cc(Cn3cnc4c(N)ncc(Cl)c43)c(N3CCC[C@@H](N)C3)cn2)cc1F` [Example 19, (R)-1-((5-(3-aminopiperidin-1-yl)-2-(3-fluoro-4-methoxyphenyl)pyridin-4-yl)methyl)-7-chloro-1H-imidazo[4,5-c]pyridin-4-amine], for which the IC50 at NSD2 [1-1365] (setting [4]) is 0.01 to 1 µM; in assay [1] (cellular H3K36me2 level), 3.9 µM.
For `Nc1ncnc2c1ncn2Cc1cc(-c2ccc(F)c(F)c2)ncc1N1CCC[C@](N)(Cc2nccs2)C1` [Example 53, (S)-9-((5-(3-amino-3-(thiazol-2-ylmethyl)piperidin-1-yl)-2-(3,4-difluorophenyl)pyridin-4-yl)methyl)-9H-purin-6-amine], in that order: 0.001 to 0.01 µM and 0.327 µM.
Regarding `COc1ccc(-c2cc(Cn3cnc4c(N)ncnc43)c(N3CCC[C@](N)(CC(F)(F)F)C3)cn2)cc1F` [Example 303, (S)-9-((5-(3-amino-3-(2,2,2-trifluoroethyl)piperidin-1-yl)-2-(3-fluoro-4-methoxyphenyl)pyridin-4-yl)methyl)-9H-purin-6-amine], the figures for the IC50 (on NSD2 [1-1365] (read-out: NSD2 IC50); in assay [1]) were 0.01 to 1 µM and 5.37 µM, respectively.
On to `COc1ccc(-c2cc(Cn3cnc4c(N)ncnc43)c(N3CCC[C@](N)(C(=O)N(C)C)C3)cn2)cc1F` [Example 80, (R)-3-amino-1-(4-((6-amino-9H-purin-9-yl)methyl)-6-(3-fluoro-4-methoxyphenyl)pyridin-3-yl)-N,N-dimethylpiperidine-3-carboxamide], for which the IC50 at NSD2 [1-1365] (setting [4]) is 0.001 to 0.01 µM; in assay [1] (cellular H3K36me2 level), 4.95 µM.
Regarding `Nc1ncnc2c1ncn2Cc1cc(-c2ccc(C(F)(F)F)cc2F)ncc1N1CCC[C@](N)([C@@H](O)C(F)F)C1` [Example 141, (R)-1-((R)-3-amino-1-(4-((6-amino-9H-purin-9-yl)methyl)-6-(2-fluoro-4-(trifluoromethyl)phenyl)pyridin-3-yl)piperidin-3-yl)-2,2-difluoroethan-1-ol], the IC50 was 0.01 to 1 µM on NSD2 [1-1365] (setting [4]), 1.15 µM in assay [2] and 7.7 µM in assay [3] (setting [5]).
As to `COc1cc(F)c(-c2cc(Cn3cnc4c(N)ncnc43)c(N3CCC[C@](N)([C@H](O)C(F)F)C3)cn2)cc1F` [Example 161, (S)-1-((R)-3-amino-1-(4-((6-amino-9H-purin-9-yl)methyl)-6-(2,5-difluoro-4-methoxyphenyl)pyridin-3-yl)piperidin-3-yl)-2,2-difluoroethan-1-ol], the IC50 at NSD2 [1-1365] (setting [4]) was 0.001 to 0.01 µM; in assay [2] it was 0.073 µM; in assay [3] (setting [5]), 0.502 µM.
For the compound `COc1ccc(-c2cc(Cn3cnc4c(N)ncnc43)c(N3CCC[C@](N)(c4cccc(Cl)n4)C3)cn2)c(F)c1` [Example 181, (R)-9-((5-(3-amino-3-(6-chloropyridin-2-yl)piperidin-1-yl)-2-(2-fluoro-4-methoxyphenyl)pyridin-4-yl)methyl)-9H-purin-6-amine], the IC50 was 0.01 to 1 µM on NSD2 [1-1365] (read-out: NSD2 IC50); 1.56 µM in assay [2]; 1.98 µM in assay [3] (KMS11-Par line, 72 hours).
On to `COc1ccc(-c2cc(Cn3cnc4c(N)ncnc43)c(N3CCC[C@](N)([C@@H](O)C(F)F)C3)cn2)cc1F` [Example 131, (R)-1-((R)-3-amino-1-(4-((6-amino-9H-purin-9-yl)methyl)-6-(3-fluoro-4-methoxyphenyl)pyridin-3-yl)piperidin-3-yl)-2,2-difluoroethan-1-ol], for which the IC50 at NSD2 [1-1365] (setting [4]) was 0.001 to 0.01 µM; in assay [2], 0.142 µM; in assay [3] (setting [5]), 0.887 µM.
On to `COc1ccc(-c2cc(Cn3cnc4c(N)ncnc43)c(N3CCC[C@](N)(c4cccc(Cl)n4)C3)cn2)nc1F` [Example 224, (R)-9-((5-(3-amino-3-(6-chloropyridin-2-yl)piperidin-1-yl)-6′-fluoro-5′-methoxy-[2,2′-bipyridin]-4-yl)methyl)-9H-purin-6-amine], for which the IC50 at NSD2 [1-1365] (read-out: NSD2 IC50) is 0.001 to 0.01 µM; in assay [2], 0.348 µM; in assay [3] (KMS11-Par line, 72 hours), 1.71 µM.
For `COc1ccc(-c2cc(Cn3cnc4c(N)ncnc43)c(N3CCC[C@](N)(C(O)C(F)F)C3)cn2)c(C(F)(F)F)c1` (stereo in doubt) [Example 167, (R)-1-((R)-3-amino-1-(4-((6-amino-9H-purin-9-yl)methyl)-6-(4-methoxy-2-(trifluoromethyl)phenyl)pyridin-3-yl)piperidin-3-yl)-2,2-difluoroethan-1-ol], in that order: 0.01 to 1 µM, 0.559 µM and 6.12 µM.
For `CC(=C(F)F)[C@@]1(N)CCCN(c2cnc(-c3ccc(F)c(F)c3)cc2Cn2cnc3c(N)ncnc32)C1` [Example 293, (S)-9-((5-(3-amino-3-(1,1-difluoroprop-1-en-2-yl)piperidin-1-yl)-2-(3,4-difluorophenyl)pyridin-4-yl)methyl)-9H-purin-6-amine], in that order: 0.01 to 1 µM, 1.3 µM and 3.21 µM.
Consider `COc1ccc(-c2cc(Cn3cnc4c(N)ncnc43)c(N3CCC[C@](N)(C(O)C(F)F)C3)cn2)c(C(F)(F)F)c1` (stereo in doubt) [Example 166, (S)-1-((R)-3-amino-1-(4-((6-amino-9H-purin-9-yl)methyl)-6-(4-methoxy-2-(trifluoromethyl)phenyl)pyridin-3-yl)piperidin-3-yl)-2,2-difluoroethan-1-ol], for which the IC50 on NSD2 [1-1365] (setting [4]) was 0.001 to 0.01 µM; in assay [2], 0.432 µM; in assay [3] (setting [5]), 8.51 µM.
On to `Cn1ncc([C@@]2(N)CCCN(c3cnc(-c4ccc(F)c(F)c4)cc3Cn3cnc4c(N)ncnc43)C2)n1` [Example 283, (R)-9-((5-(3-amino-3-(2-methyl-2H-1,2,3-triazol-4-yl)piperidin-1-yl)-2-(3,4-difluorophenyl)pyridin-4-yl)methyl)-9H-purin-6-amine], for which the IC50 was 0.001 to 0.01 µM at NSD2 [1-1365] (NSD2 IC50); 0.11 µM in assay [2]; 1.02 µM in assay [3] (KMS11-Par line, 72 hours).
`CC(C)[C@H](O)[C@@]1(N)CCCN(c2cnc(-c3ccc(F)c(F)c3)cc2Cn2cnc3c(N)ncnc32)C1` [Example 98, (S)-1-((R)-3-amino-1-(4-((6-amino-9H-purin-9-yl)methyl)-6-(3,4-difluorophenyl)pyridin-3-yl)piperidin-3-yl)-2-methylpropan-1-ol]: the IC50 on NSD2 [1-1365] (setting [4]) is 0.01 to 1 µM; in assay [2], 1.5 µM; in assay [3] (setting [5]), 6.26 µM.
As to `Nc1ncnc2c1ncn2Cc1cc(-c2ccc(F)cc2F)ncc1N1CCC[C@](N)([C@@H](O)C(F)F)C1` [Example 147, (R)-1-((R)-3-amino-1-(4-((6-amino-9H-purin-9-yl)methyl)-6-(2,4-difluorophenyl)pyridin-3-yl)piperidin-3-yl)-2,2-difluoroethan-1-ol], the IC50 is 0.01 to 1 µM at NSD2 [1-1365] (setting [4]), 0.044 µM in assay [2] and 2.49 µM in assay [3] (setting [5]).
